Columns and labels:
JNK3 = JNK3 (Homo sapiens, UniProt P53779); assay: JNK3 inhibition assay (spectrophotometric coupled-enzyme assay); assay type: biochemical; conditions: 10 μM ATP, 10 nM activated JNK3
Description: Compounds were assayed for the inhibition of JNK3 by a spectrophotometric coupled-enzyme assay. In this assay, a fixed concentration of activated JNK3 (10 nM) was incubated with various concentrations of a potential inhibitor dissolved in DMSO for 10 minutes at 30° C. in a buffer containing 0.1 M HEPES buffer, pH 7.5, containing 10 mM MgCl2, 2.5 mM phosphoenolpyruvate, 200 μM NADH, 150 μg/mL pyruvate kinase, 50 μg/mL lactate dehydrogenase, and 200 μM EGF receptor peptide. The EGF receptor peptide is a phosphoryl acceptor in the JNK3-catalyzed kinase reaction. The reaction was initiated by the addition of 10 μM ATP and the assay plate is inserted into the spectrophotometer's assay plate compartment that was maintained at 30° C. The decrease of absorbance at 340 nm was monitored as a function of time. The rate data as a function of inhibitor concentration was fitted to competitive inhibition kinetic model to determine the Ki.

JAK3 = biological target: T1, JAK3 (Homo sapiens, UniProt P52333); assay: JAK3 inhibition assay; assay type: biochemical; conditions: 2 μM ATP, ELISA read at 450 nm
T1 sequence (P52333 1-1124): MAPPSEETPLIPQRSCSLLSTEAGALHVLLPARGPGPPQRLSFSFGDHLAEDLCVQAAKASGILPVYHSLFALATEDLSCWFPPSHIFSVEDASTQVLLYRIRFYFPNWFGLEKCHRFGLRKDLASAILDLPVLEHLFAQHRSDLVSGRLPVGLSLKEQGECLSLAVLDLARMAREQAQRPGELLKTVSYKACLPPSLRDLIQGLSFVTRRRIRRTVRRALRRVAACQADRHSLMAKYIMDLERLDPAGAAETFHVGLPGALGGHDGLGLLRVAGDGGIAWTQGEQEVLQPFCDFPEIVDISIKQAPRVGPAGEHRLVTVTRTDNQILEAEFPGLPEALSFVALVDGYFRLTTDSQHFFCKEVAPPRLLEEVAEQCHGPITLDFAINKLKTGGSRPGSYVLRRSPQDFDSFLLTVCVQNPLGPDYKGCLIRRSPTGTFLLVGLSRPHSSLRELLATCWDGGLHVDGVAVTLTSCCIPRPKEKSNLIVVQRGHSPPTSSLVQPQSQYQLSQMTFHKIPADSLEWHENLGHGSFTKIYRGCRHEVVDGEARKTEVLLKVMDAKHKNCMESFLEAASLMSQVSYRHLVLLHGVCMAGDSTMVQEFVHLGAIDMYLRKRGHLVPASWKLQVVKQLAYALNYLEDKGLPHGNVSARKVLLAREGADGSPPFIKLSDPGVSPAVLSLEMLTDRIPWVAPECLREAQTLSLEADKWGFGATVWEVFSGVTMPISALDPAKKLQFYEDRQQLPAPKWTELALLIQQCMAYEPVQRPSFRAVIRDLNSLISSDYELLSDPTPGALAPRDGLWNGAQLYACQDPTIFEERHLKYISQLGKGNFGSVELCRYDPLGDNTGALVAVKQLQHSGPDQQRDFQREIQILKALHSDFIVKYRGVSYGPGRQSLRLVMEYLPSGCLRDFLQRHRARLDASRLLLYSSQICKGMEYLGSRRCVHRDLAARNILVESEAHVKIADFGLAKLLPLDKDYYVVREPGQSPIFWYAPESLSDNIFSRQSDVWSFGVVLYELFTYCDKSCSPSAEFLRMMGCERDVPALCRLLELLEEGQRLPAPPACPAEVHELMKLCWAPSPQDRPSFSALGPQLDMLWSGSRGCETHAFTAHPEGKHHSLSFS
Description: Compounds were screened for their ability to inhibit JAK3 according to the method described by G. R. Brown, et al, Bioorg. Med. Chem. Lett. 2000, vol. 10, pp 575–579 in the following manner. Into Maxisorb plates, previously coated at 4° C. with Poly (Glu, Ala, Tyr) 6:3:1 then washed with phosphate buffered saline 0.05% and Tween (PBST), was added 2 μM ATP, 5 MM MgCl2, and a solution of compound in DMSO. The reaction was started with JAK enzyme and the plates incubated for 60 minutes at 30° C. The plates were then washed with PBST, 100 μL HRP-Conjugated 4G10 antibody was added, and the plate incubated for 90 minutes at 30° C. The plate was again washed with PBST, 100 μL TMB solution is added, and the plates were incubated for another 30 minutes at 30° C. Sulfuric acid (100 μL of 1M) was added to stop the reaction and the plate is read at 450 nm to obtain the optical densities for analysis to determine Ki values.

Sequence of JNK3 (P53779 whole entry, species assumed): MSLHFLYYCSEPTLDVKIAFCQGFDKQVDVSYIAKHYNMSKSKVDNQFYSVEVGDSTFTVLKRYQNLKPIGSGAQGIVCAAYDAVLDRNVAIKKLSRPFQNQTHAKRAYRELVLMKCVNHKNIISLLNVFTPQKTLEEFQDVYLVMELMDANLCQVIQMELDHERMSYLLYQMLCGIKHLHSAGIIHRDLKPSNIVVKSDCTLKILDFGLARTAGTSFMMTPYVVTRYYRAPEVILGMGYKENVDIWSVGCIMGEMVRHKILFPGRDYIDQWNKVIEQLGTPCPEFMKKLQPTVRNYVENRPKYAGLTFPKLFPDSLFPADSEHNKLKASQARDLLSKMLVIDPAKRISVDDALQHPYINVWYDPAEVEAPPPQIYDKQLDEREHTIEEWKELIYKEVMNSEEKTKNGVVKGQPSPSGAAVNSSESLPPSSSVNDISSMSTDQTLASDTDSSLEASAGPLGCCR

| Ki (JNK3) | Ki (JAK3) | Structure (SMILES) |
| --- | --- | --- |
| < 1 µM | < 5 µM | CN1C(=O)COc2ccc(-c3ccnc(Nc4ccc(S(N)(=O)=O)cc4)n3)cc21 [IVa-24] |
| < 1 µM | < 5 µM | NS(=O)(=O)c1ccc(Nc2nccc(-c3ccc4c(c3)NC(=O)CO4)n2)cc1 [IVa-23] |
